# In ChEMBL document CHEMBL6121021, “Design and Synthesis of Topoisomerases-Histone Deacetylase Dual Targeted Quinoline-Bridged Hydroxamates as Anticancer Agents” (J Med Chem, 2025):
# Calls of active or inactive are those of the source. No cut-off for these calls is given here.
# Columns and labels:
# [1] = tested on: MDA-MB-231; test: Anti-cancer activity against human MDA-MB-231 cells assessed as decrease in PCNA level incubated for 48 hrs by immunoblot analysis; format: functional, cell-based; details: dose 1-10 µM
# [2] = biological target: Histone deacetylase 2 (Homo sapiens, UniProt Q92769)
# [3] = Antiproliferative activity against human PBMC cells at 10 uM incubated for 48 hrs by MTT assay; format: toxicity, cell-based
# [4] = tested on: MDA-MB-231; test: Anti-cancer activity against human MDA-MB-231 cells assessed as decrease in p21 level at 1 to 10 uM incubated for 48 hrs by immunoblot analysis; format: functional, cell-based; details: dose 1-10 µM
# [5] = tested on: MDA-MB-231; test: Anti-cancer activity against human MDA-MB-231 cells assessed as decrease in p53 level at 1 to 3 uM incubated for 48 hrs by immunoblot analysis; format: functional, cell-based; details: dose 1-3 µM
# [6] = tested on: H9c2; test: Antiproliferative activity against rat H9c2 cells at 10 uM by JC-1 staining based analysis; format: toxicity, cell-based; details: h9c2, 10 µM
# [7] = Metabolic stability in human hepatocytes assessed as half life at 2 uM measured upto 120 min by LC-MS/MS analysis; format: ADME, cell-based, Hepatocyte
# [8] = biological target: Cytochrome P450 1A2 (Homo sapiens, UniProt P05177); test: Inhibition of CYP1A2 in human liver microsomes preincubated for 10 mins followed by NADPH addition measured after 5 mins by LC-MS/MS analysis; format: ADME, Microsome
# [9] = Drug metabolism in human hepatocytes assessed as direct glucuronide conjugate M9 metabolite formation at 10 uM by LC-MS/MS analysis; format: ADME, cell-based, Hepatocyte
# [10] = Drug metabolism in human hepatocytes assessed as oxidative deamination M1 metabolite formation at 10 uM by LC-MS/MS analysis; format: ADME, cell-based, Hepatocyte
# [11] = biological target: Cytochrome P450 2C19 (Homo sapiens, UniProt P33261); test: Inhibition of CYP2C19 in human liver microsomes preincubated for 10 mins followed by NADPH addition measured after 5 mins by LC-MS/MS analysis; format: ADME, Microsome
# [12] = biological target: Histone deacetylase 9 (Homo sapiens, UniProt Q9UKV0); test: Inhibition of His-tagged recombinant human HDAC9 by fluorogenic assay
# [13] = Antiproliferative activity against human NCI-H1975 cells harboring EGFR T790M mutant incubated for 48 hrs by MTT assay; format: functional, cell-based; details: NCI-H1975, 48 h
# [14] = tested on: MDA-MB-231; test: Anti-cancer activity against human MDA-MB-231 cells assessed as decrease in p21 level at higher concentration incubated for 48 hrs by immunoblot analysis; format: functional, cell-based
# [15] = tested on: A549; test: Induction of cell cycle arrest in human A549 cells assessed as accumulation at G2/M phase by PI staining based flow cytometry; format: functional
# [16] = tested on: MDA-MB-231; test: Anti-cancer activity against human MDA-MB-231 cells assessed as decrease in p53 level at 1 to 5 uM incubated for 48 hrs by immunoblot analysis; format: functional, cell-based; details: dose 1-5 µM
# [17] = tested on: A549; test: Induction of apoptosis in human A549 cells by Annexin-V/PI staining based flow cytometry; format: functional, cell-based
# [18] = tested on: MDA-MB-231; test: Anti-cancer activity against human MDA-MB-231 cells assessed as decrease in CDK-4 level at 10 uM incubated for 48 hrs by immunoblot analysis; format: functional, cell-based
# Chain of Cytochrome P450 2C19 (P33261 whole entry): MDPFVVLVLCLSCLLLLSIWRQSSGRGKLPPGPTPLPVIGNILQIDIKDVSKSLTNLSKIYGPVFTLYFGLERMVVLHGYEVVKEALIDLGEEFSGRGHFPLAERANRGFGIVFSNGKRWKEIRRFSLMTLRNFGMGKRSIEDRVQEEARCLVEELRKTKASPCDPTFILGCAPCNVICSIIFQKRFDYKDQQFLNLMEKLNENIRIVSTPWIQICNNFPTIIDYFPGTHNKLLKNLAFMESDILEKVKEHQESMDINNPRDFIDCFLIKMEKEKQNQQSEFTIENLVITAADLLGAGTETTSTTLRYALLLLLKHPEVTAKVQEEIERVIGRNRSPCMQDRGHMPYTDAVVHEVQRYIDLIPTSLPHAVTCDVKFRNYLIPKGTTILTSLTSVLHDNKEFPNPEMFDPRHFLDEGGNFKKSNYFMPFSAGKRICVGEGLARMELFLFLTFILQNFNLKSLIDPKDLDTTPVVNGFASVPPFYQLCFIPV
# Chain of Histone deacetylase 9 (Q9UKV0 whole entry): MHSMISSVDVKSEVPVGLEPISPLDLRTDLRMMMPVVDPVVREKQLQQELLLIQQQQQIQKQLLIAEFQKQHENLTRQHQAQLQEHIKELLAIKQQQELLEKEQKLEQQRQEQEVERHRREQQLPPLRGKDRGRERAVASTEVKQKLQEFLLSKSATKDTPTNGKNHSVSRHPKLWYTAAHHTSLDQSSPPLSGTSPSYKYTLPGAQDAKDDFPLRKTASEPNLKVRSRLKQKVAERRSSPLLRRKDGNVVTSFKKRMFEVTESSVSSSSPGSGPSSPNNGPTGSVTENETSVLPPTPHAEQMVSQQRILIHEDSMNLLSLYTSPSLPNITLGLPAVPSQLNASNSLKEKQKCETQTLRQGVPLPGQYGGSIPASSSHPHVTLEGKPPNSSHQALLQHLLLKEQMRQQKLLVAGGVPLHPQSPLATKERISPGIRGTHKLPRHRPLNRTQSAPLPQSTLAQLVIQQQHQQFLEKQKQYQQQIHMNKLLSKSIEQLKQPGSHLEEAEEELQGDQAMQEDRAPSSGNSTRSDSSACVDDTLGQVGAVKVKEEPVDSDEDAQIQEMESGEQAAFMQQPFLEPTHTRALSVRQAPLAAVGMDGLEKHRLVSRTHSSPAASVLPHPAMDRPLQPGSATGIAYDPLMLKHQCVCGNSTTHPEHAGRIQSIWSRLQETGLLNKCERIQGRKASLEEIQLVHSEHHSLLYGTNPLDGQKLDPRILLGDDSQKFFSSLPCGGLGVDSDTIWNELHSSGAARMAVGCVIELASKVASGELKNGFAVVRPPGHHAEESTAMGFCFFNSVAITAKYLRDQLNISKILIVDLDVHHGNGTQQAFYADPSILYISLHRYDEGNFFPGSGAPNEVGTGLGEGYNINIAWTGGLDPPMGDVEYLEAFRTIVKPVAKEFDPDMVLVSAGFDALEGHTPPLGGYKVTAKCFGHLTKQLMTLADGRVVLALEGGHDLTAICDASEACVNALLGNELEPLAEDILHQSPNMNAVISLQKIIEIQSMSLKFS
# Chain of Cytochrome P450 1A2 (P05177 whole entry): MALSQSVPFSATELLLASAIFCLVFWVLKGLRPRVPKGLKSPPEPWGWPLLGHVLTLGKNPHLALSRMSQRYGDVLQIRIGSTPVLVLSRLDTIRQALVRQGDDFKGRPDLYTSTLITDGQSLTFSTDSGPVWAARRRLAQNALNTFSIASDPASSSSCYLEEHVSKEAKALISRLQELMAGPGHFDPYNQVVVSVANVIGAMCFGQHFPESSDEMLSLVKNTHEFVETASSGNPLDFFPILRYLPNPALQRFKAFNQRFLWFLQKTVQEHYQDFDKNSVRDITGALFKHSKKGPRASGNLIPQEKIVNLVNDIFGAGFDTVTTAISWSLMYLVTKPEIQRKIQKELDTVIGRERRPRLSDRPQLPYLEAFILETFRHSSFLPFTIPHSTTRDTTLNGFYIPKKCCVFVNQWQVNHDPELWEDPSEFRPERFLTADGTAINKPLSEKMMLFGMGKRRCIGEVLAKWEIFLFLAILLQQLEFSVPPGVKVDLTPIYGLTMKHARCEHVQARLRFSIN
# Chain of Histone deacetylase 2 (Q92769 whole entry): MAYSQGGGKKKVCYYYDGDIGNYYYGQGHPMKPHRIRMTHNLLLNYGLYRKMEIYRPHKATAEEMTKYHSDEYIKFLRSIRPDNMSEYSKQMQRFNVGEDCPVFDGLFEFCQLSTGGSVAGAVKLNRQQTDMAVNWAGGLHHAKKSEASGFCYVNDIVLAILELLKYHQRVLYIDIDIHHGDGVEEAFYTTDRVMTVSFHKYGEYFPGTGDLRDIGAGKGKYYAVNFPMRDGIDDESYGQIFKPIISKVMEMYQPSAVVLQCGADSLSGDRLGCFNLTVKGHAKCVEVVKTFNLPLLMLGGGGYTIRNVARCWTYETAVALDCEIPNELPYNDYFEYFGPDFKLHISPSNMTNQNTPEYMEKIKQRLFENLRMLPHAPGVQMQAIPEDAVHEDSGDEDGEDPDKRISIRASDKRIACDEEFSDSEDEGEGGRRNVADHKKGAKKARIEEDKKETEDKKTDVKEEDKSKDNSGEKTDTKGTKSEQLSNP
SMILES,Activity [1],IC50 [2],Activity [3],Activity [4],Activity [5],Activity [6],half-life at 2 µM [7],IC50 [8],Drug metabolism [9],Drug metabolism [10],IC50 [11],IC50 [12],IC50 [13],Activity [14],Activity [15],Activity [16],Activity [17],Activity [18]
COc1ccc(-c2ccc3cc(OCCCCCC(=O)NO)ccc3n2)cc1,Dose-dependent-effect,77.4 nM,Non-toxic,Active,Active,Non-toxic,45.7 min,4420 nM,metabolite_detected,metabolite_detected,18000 nM,> 100 nM,< 250 nM,,,,,
COc1ccc(-c2ccc3ccc(OCCCCCCC(=O)NO)cc3n2)cc1I,,,,,,,,,,,,,,Active,Active,Active,Active,Active
